{"source": "ChEMBL document CHEMBL2331133", "about": "“Inhibitory effect on NO production of triterpenes from the fruiting bodies of Ganoderma lucidum” (Bioorg Med Chem Lett, 2013)", "key": {"[1]": {"tested_on": "RAW264.7", "test": "Cytotoxicity against LPS-stimulated mouse RAW264.7 cells assessed as cell viability at 50 uM after 24 hrs by MTT assay", "assay_type": "cell-based", "settings": "raw264.7, 24 h"}, "[2]": {"tested_on": "RAW264.7", "test": "Cytotoxicity against mouse RAW264.7 cells assessed as cell viability at 50 uM after 24 hrs by MTT assay", "assay_type": "cell-based", "settings": "for Activity: mouse, raw264.7, 24 h, 50 µM"}, "[3]": {"tested_on": "RAW264.7", "test": "Antiinflammatory activity in mouse RAW264.7 cells assessed as inhibition of LPS-induced nitric oxide production by Griess reaction method", "assay_type": "functional, cell-based"}, "[4]": {"tested_on": "RAW264.7", "test": "Inhibition of LPS-induced COX-2 expression in mouse RAW264.7 cells at 1 to 30 uM treated 30 mins before LPS challenge measured after 18 hrs by immunoblot analysis", "assay_type": "functional, cell-based"}, "[5]": {"tested_on": "RAW264.7", "test": "Inhibition of LPS-induced iNOS expression in mouse RAW264.7 cells treated 30 mins before LPS challenge measured after 18 hrs by immunoblot analysis", "assay_type": "functional, cell-based"}}, "note": "Calls of active or inactive are those of the source. The calls are words filed in the database; no cut-off is given here."}
{"smiles": "CC(C)[C@@H](C)/C=C/[C@@H](C)[C@H]1CC[C@H]2C3=CC[C@H]4C[C@@H](O)CC[C@]4(C)[C@H]3CC[C@]12C", "values": [{"measurement": "Activity", "setting": "[1]", "result": "Non-toxic"}, {"measurement": "Activity", "setting": "[2]", "result": "Non-toxic"}]}
{"smiles": "CCCCOC(=O)CC[C@@H](C)[C@H]1CC(=O)[C@@]2(C)C3=C(C(=O)[C@@H](OC(C)=O)[C@]12C)[C@@]1(C)CCC(=O)C(C)(C)[C@@H]1CC3=O", "note": "[BUTYL LUCIDENATE D2]", "values": [{"measurement": "IC50", "setting": "[3]", "result": 35, "unit": "µM"}, {"measurement": "Activity", "setting": "[1]", "result": "Non-toxic"}, {"measurement": "Activity", "setting": "[2]", "result": "Non-toxic"}]}
{"smiles": "CCCCOC(=O)CC[C@@H](C)[C@H]1CC(=O)[C@@]2(C)C3=C(C(=O)[C@@H](OC(C)=O)[C@]12C)[C@@]1(C)CC[C@H](O)C(C)(C)[C@@H]1CC3=O", "note": "[BUTYL LUCIDENATE E2]", "values": [{"measurement": "inhibition", "setting": "[4]", "result": "Active"}, {"measurement": "inhibition", "setting": "[5]", "result": "Dose-dependent effect"}, {"measurement": "IC50", "setting": "[3]", "result": 6.4, "unit": "µM"}, {"measurement": "Activity", "setting": "[1]", "result": "Non-toxic"}, {"measurement": "Activity", "setting": "[2]", "result": "Non-toxic"}]}
{"smiles": "CCCCOC(=O)CC[C@@H](C)[C@H]1CC(=O)[C@@]2(C)C3=C(C(=O)C[C@]12C)[C@@]1(C)CC[C@H](O)C(C)(C)[C@@H]1C[C@@H]3O", "note": "[BUTYL LUCIDENATE N]", "values": [{"measurement": "inhibition", "setting": "[4]", "result": "Active"}, {"measurement": "inhibition", "setting": "[5]", "result": "Dose-dependent effect"}, {"measurement": "IC50", "setting": "[3]", "result": 4.5, "unit": "µM"}, {"measurement": "Activity", "setting": "[1]", "result": "Non-toxic"}, {"measurement": "Activity", "setting": "[2]", "result": "Non-toxic"}]}
{"smiles": "CCCCOC(=O)CC[C@@H](C)[C@H]1CC(=O)[C@@]2(C)C3=C(C(=O)[C@@H](OC(C)=O)[C@]12C)[C@@]1(C)CC[C@H](O)C(C)(C)[C@@H]1C[C@@H]3O", "note": "[BUTYL LUCIDENATE P]", "values": [{"measurement": "inhibition", "setting": "[4]", "result": "Active"}, {"measurement": "inhibition", "setting": "[5]", "result": "Dose-dependent effect"}, {"measurement": "IC50", "setting": "[3]", "result": 7.4, "unit": "µM"}, {"measurement": "Activity", "setting": "[1]", "result": "Non-toxic"}, {"measurement": "Activity", "setting": "[2]", "result": "Non-toxic"}]}
{"smiles": "CC(C)[C@@H](C)/C=C/[C@@H](C)[C@H]1CC[C@@H]2[C@]1(C)CC[C@H]1[C@]23C=C[C@]2(C[C@@H](O)CC[C@]12C)OO3", "note": "[ERGOSTEROL PEROXIDE]", "values": [{"measurement": "IC50", "setting": "[3]", "result": 9.4, "unit": "µM"}, {"measurement": "Activity", "setting": "[1]", "result": "Non-toxic"}, {"measurement": "Activity", "setting": "[2]", "result": "Non-toxic"}]}
{"smiles": "CC(C)[C@@H](C)/C=C/[C@@H](C)[C@H]1CC[C@H]2C3=CC=C4C[C@@H](O)CC[C@]4(C)[C@H]3CC[C@]12C", "note": "[ERGOSTEROL]", "values": [{"measurement": "Activity", "setting": "[1]", "result": "Non-toxic"}, {"measurement": "Activity", "setting": "[2]", "result": "Non-toxic"}]}
{"smiles": "C[C@H](CCC=C(CO)CO)[C@H]1CC[C@@]2(C)C3=CC[C@H]4C(C)(C)C(=O)CC[C@]4(C)C3=CC[C@]12C", "note": "[GANODERIOL F]", "values": [{"measurement": "IC50", "setting": "[3]", "result": 36, "unit": "µM"}, {"measurement": "Activity", "setting": "[1]", "result": "Non-toxic"}, {"measurement": "Activity", "setting": "[2]", "result": "Non-toxic"}]}
{"smiles": "C[C@H](CC[C@@H](O)C(C)(C)O)[C@H]1CC[C@@]2(C)C3=CC[C@H]4C(C)(C)C(=O)CC[C@]4(C)C3=CC[C@]12C", "note": "[GANODERMANONDIOL]", "values": [{"measurement": "Activity", "setting": "[1]", "result": "Non-toxic"}, {"measurement": "Activity", "setting": "[2]", "result": "Non-toxic"}]}
{"smiles": "CCCCOC(=O)CC[C@@H](C)[C@H]1C[C@H](O)[C@@]2(C)C3=C(C(=O)C[C@]12C)[C@@]1(C)CCC(=O)C(C)(C)[C@@H]1C[C@@H]3O", "note": "[LUCIDENATE Q]", "values": [{"measurement": "IC50", "setting": "[3]", "result": 4.3, "unit": "µM"}, {"measurement": "IC50", "setting": "[2]; Mus musculus, RAW264.7, 24 h", "result": 14, "unit": "µM"}]}
{"smiles": "COC(=O)C(C)CC(=O)C[C@@H](C)[C@H]1CC(=O)[C@@]2(C)C3=C(C(=O)[C@@H](OC(C)=O)[C@]12C)[C@@]1(C)CC[C@H](O)C(C)(C)[C@@H]1CC3=O", "note": "(stereo partly specified) [METHYL GANODERATE H]", "values": [{"measurement": "Activity", "setting": "[1]", "result": "Non-toxic"}, {"measurement": "Activity", "setting": "[2]", "result": "Non-toxic"}]}
{"smiles": "COC(=O)C(C)CC(=O)C[C@@H](C)[C@H]1C[C@H](O)[C@@]2(C)C3=C(C(=O)C[C@]12C)[C@@]1(C)CCC(=O)C(C)(C)[C@@H]1CC3=O", "note": "(stereo partly specified) [METHYL GANODERATE J]", "values": [{"measurement": "IC50", "setting": "[3]", "result": 9.2, "unit": "µM"}, {"measurement": "Activity", "setting": "[1]", "result": "Non-toxic"}, {"measurement": "Activity", "setting": "[2]", "result": "Non-toxic"}]}
{"smiles": "COC(=O)CC[C@@H](C)[C@H]1CC(=O)[C@@]2(C)C3=C(C(=O)C[C@]12C)[C@@]1(C)CCC(=O)C(C)(C)[C@@H]1C[C@@H]3O", "note": "[METHYL LUCIDENATE A]", "values": [{"measurement": "Activity", "setting": "[1]", "result": "Non-toxic"}, {"measurement": "Activity", "setting": "[2]", "result": "Non-toxic"}]}
{"smiles": "COC(=O)CC[C@@H](C)[C@H]1CC(=O)[C@@]2(C)C3=C(C(=O)C[C@]12C)[C@@]1(C)CC[C@H](O)C(C)(C)[C@@H]1C[C@@H]3O", "note": "[METHYL LUCIDENATE N]", "values": [{"measurement": "Activity", "setting": "[1]", "result": "Non-toxic"}, {"measurement": "Activity", "setting": "[2]", "result": "Non-toxic"}]}
